Data: ChEMBL document CHEMBL1128955, “Benzolactam growth hormone secretagogues: Replacement of the C-3 amide bond in L-692,429” (1996)
Activity calls are given as the source filed them. The rule behind the calls is not given here.

Assays:
Rattus norvegicus [1] = species: Rattus norvegicus; test: In vitro growth hormone release in rat pituitary cells; type: functional; conditions: Pituitary gland cell, read-out: ED50 (the source's name)
Rattus norvegicus [2] = species: Rattus norvegicus; test: In vitro growth hormone release in rat pituitary cells at 10 uM; inactive; type: functional, cell-based; conditions: Pituitary gland cell
Rattus norvegicus [3] = species: Rattus norvegicus; test: In vitro growth hormone release in rat pituitary cells at 1 uM; Weakly active; type: functional, cell-based; conditions: Pituitary gland cell

| SMILES | EC50 (Rattus norvegicus [1]) [nM] | other results |
| --- | --- | --- |
| CC(C)(N)CCC(=O)N[C@@H]1CCc2ccccc2N(Cc2ccc(-c3ccccc3-c3nn[nH]n3)cc2)C1=O | 3000 | – |
| CC(C)(N)CC(=O)N[C@@H]1CCc2ccccc2N(Cc2ccc(-c3ccccc3-c3nn[nH]n3)cc2)C1=O | 60 | – |
| CC(C)(N)CC(=O)N(Cc1ccccc1)[C@@H]1CCc2ccccc2N(Cc2ccc(-c3ccccc3-c3nn[nH]n3)cc2)C1=O | – | ED50 (Rattus norvegicus [2]): inactive |
| CC(C)(N)CC(=O)OC1CCc2ccccc2N(Cc2ccc(-c3ccccc3-c3nn[nH]n3)cc2)C1=O (configuration not stated) | – | Growth hormone release at 1 uM (qualitative) (Rattus norvegicus [3]): Weak activity |
| CC(C)(N)CCNC1CCc2ccccc2N(Cc2ccc(-c3ccccc3-c3nn[nH]n3)cc2)C1=O (configuration not stated) | – | Growth hormone release at 1 uM (qualitative) (Rattus norvegicus [3]): Weak activity |
| CC(C)(N)NC(=O)N[C@@H]1CCc2ccccc2N(Cc2ccc(-c3ccccc3-c3nn[nH]n3)cc2)C1=O | – | Growth hormone release at 1 uM (qualitative) (Rattus norvegicus [3]): Weak activity |
| C[C@@H](O)CNC(C)(C)CNC(=O)N[C@@H]1CCc2ccccc2N(Cc2ccc(-c3ccccc3-c3nn[nH]n3)cc2)C1=O | – | Growth hormone release at 1 uM (qualitative) (Rattus norvegicus [3]): Weak activity |
| CN(C(=O)CC(C)(C)N)[C@@H]1CCc2ccccc2N(Cc2ccc(-c3ccccc3-c3nn[nH]n3)cc2)C1=O | 7000 | – |
| CC(C)(N)CCSC1CCc2ccccc2N(Cc2ccc(-c3ccccc3-c3nn[nH]n3)cc2)C1=O (configuration not stated) | 6000 | – |
| CC(C)(N)CC(=O)NC1CCc2ccccc2N(Cc2ccc(-c3ccccc3-c3nn[nH]n3)cc2)C1=O [L-158432] | 120 | – |
| CC(C)(N)C(=O)N[C@@H]1CCc2ccccc2N(Cc2ccc(-c3ccccc3-c3nn[nH]n3)cc2)C1=O | 30 | – |
| CC(C)(N)CNC1CCc2ccccc2N(Cc2ccc(-c3ccccc3-c3nn[nH]n3)cc2)C1=O (configuration not stated) | 1000 | – |
| C[C@H](O)CNC(C)(C)CNC(=O)N[C@@H]1CCc2ccccc2N(Cc2ccc(-c3ccccc3-c3nn[nH]n3)cc2)C1=O | 2500 | – |
| C[C@H](O)CNC(C)(C)CC(=O)N[C@@H]1CCc2ccccc2N(Cc2ccc(-c3ccccc3-c3nn[nH]n3)cc2)C1=O | 7 | – |
| CC(C)(N)CNC(=O)N[C@@H]1CCc2ccccc2N(Cc2ccc(-c3ccccc3-c3nn[nH]n3)cc2)C1=O | 100 | – |
| CC(C)(N)CCCSC1CCc2ccccc2N(Cc2ccc(-c3ccccc3-c3nn[nH]n3)cc2)C1=O (configuration not stated) | 7000 | – |
| C[C@@H](O)CNC(C)(C)CC(=O)N[C@@H]1CCc2ccccc2N(Cc2ccc(-c3ccccc3-c3nn[nH]n3)cc2)C1=O [L-692585] | 3 | – |
